Read-outs that look alike come from different tables or passages of the source. Marks after values point to notes of the source that are not given here.
What was measured:
Type in all cases: in vivo
[1] = system: Erysiphe graminis f. sp. tritici; experiment: Test A: preventive control of wheat powdery mildew on wheat seedlings; parameters: concentration or dose not given beside the values; details: sprayed day before inoculation, rated after 7 days, rate not given
[2] = system: Puccinia recondita; experiment: Test B: preventive control of wheat leaf rust on wheat seedlings; parameters: concentration or dose not given beside the values; details: sprayed day before inoculation, rate not given
[3] = system: Phytophthora infestans
[4] = system: Plasmopara viticola; experiment: Test E: preventive control of grape downy mildew on grape seedlings
[5] = system: Phytophthora infestans; experiment: whole plant or invertebrate; details: for pest or weed control at 100 g/ha: Phytophthora infestans, in Solanum tuberosum, 120 h, read-out: Test F disease control rating; for Test F disease control rating: 100 g/ha on potato seedlings, sprayed day after inoculation
[6] = system: Plasmopara viticola; experiment: Test G: curative control of grape downy mildew on grape seedlings (sprayed after inoculation); details: sprayed day after inoculation
[7] = tomato (or potato) seedlings, sprayed day before inoculation, rate not given
[8] = sprayed day before inoculation, rate not given

Compound | Test A disease control rating [1] [%] | Test B disease control rating [2] [%] | Test D disease control rating [3, 7] [%] | Test E disease control rating [4, 8] [%] | pest or weed control at 100 g/ha [5] [%] | Test G disease control rating ([6]; rate not given) [%] | Test F disease control rating [5] [%] | Test D disease control rating ([3]; 100 g/ha on potato seedlings) | Test E disease control rating ([4]; rate 100 g/ha (footnote *)) | Test G disease control rating ([6]; rate 100 g/ha (footnote *))
CC(NC(=O)c1c(Cl)ccnc1Cl)c1ncc(I)cc1Cl (stereo not drawn) [Compound 3, N-[1-(3-chloro-5-iodo-2-pyridinyl)ethyl]-2,4-dichloro-3-pyridinecarboxamide] | 0 | 19 | 100 | 95 | 88 | 100 | – | – | – | –
O=C(NCc1ncc(Cl)cc1Cl)c1c(Cl)ccnc1Cl [Compound 4, 2,4-Dichloro-N-[(3,5-dichloro-2-pyridinyl)methyl]-3-pyridinecarboxamide] | 0 | 9 | 100 | 70 | 100 | 100 | – | – | – | –
CC(NC(=O)c1c(Cl)ccnc1Cl)c1ncc(F)cc1Cl (stereo not drawn) [Compound 5] | 0 | 0 | 100 | 70 | – | 99 | 100 | – | – | –
O=C(NCc1ncc(Cl)cc1Br)c1c(Cl)ccnc1Cl [Compound 6] | 0 | 0 | 100 | 70 | – | 99 | 100 | – | – | –
CC(NC(=O)c1c(Cl)ccnc1Cl)c1ncc(Br)cc1Br (stereo not drawn) [Compound 7] | 0 | 45 | 100 | 100 | – | 100 | 100 | – | – | –
O=C(NCc1ncc(Cl)cc1I)c1c(Cl)ccnc1Cl [Compound 8] | 0 | 0 | 100 | 100 | – | 36 | 100 | – | – | –
O=C(NCc1ncc(Br)cc1Br)c1c(Cl)ccnc1Cl [Compound 17] | 0 | – | 100 | 99 | – | 98 | 73 | – | – | –
Cc1cc(Cl)c(C(=O)NCc2ncc(Br)cc2Br)c(Cl)n1 [Compound 18] | 0 | – | 100 | 100 | – | 100 | 77 | – | – | –
Cc1cc(Cl)c(C(=O)NCc2ncc(Cl)cc2Cl)c(Cl)n1 [Compound 19, 2,4-Dichloro-N-[(3,5-dichloro-2-pyridinyl)methyl]-6-methyl-3-pyridinecarboxamide] | 0 | – | 99 | 100 | 0 | 100 | – | – | – | –
Cc1cc(Cl)c(C(=O)NC(C)c2ncc(Cl)cc2Cl)c(Cl)n1 (stereo not drawn) [Compound 20, 2,4-Dichloro-N-[1-(3,5-dichloro-2-pyridinyl)ethyl]-6-methyl-3-pyridinecarboxamide] | 0 | – | 100 | 100 | 53 | 100 | – | – | – | –
COc1cnc(C(C)NC(=O)c2c(Cl)cc(C)nc2Cl)c(Cl)c1 (stereo not drawn) [Compound 21] | 0 | – | 99 | 100 | – | 77 | 53 | – | – | –
COc1cnc(C(C)NC(=O)c2c(Cl)ccnc2Cl)c(Cl)c1 (stereo not drawn) [Compound 22] | 0 | – | 100 | 100 | – | 94 | 98 | – | – | –
CC(NC(=O)c1c(Cl)ccnc1Cl)c1ncc(Br)cc1I (stereo not drawn) [Compound 23] | 0 | – | 100 | 100 | – | 96 | 98 | – | – | –
O=C(NCc1ncc(Br)cc1Cl)c1c(I)ccnc1Cl [Compound 24] | 0 | – | 100 | 100 | – | 84 | 0 | – | – | –
CC(NC(=O)c1c(I)ccnc1Cl)c1ncc(Br)cc1Cl (stereo not drawn) [Compound 25] | 0 | – | 100 | 100 | – | 72 | 0 | – | – | –
O=C(NCc1ncc(Cl)cc1Cl)c1c(I)ccnc1Cl [Compound 26] | 0 | – | 100 | 81 | – | 99 | 0 | – | – | –
CC(NC(=O)c1c(I)ccnc1Cl)c1ncc(Cl)cc1Cl (stereo not drawn) [Compound 27] | 0 | – | 100 | 100 | – | 100 | 0 | – | – | –

Compound | Test A disease control rating [1] [%] | Test B disease control rating [2] [%] | Test D disease control rating [3, 7] [%] | Test E disease control rating [4, 8] [%] | pest or weed control at 100 g/ha [5] [%] | Test G disease control rating ([6]; rate not given) [%] | Test F disease control rating [5] [%] | Test D disease control rating ([3]; 100 g/ha on potato seedlings) | Test E disease control rating ([4]; rate 100 g/ha (footnote *)) | Test G disease control rating ([6]; rate 100 g/ha (footnote *))
CC(NC(=O)c1c(Br)ccnc1Cl)c1ncc(Br)cc1Cl (stereo not drawn) [Compound 28] | 0 | – | 99 | 100 | – | 100 | 100 | – | – | –
Cc1ccnc(Br)c1C(=O)NC(C)c1ncc(Br)cc1Cl (stereo not drawn) [Compound 29] | 0 | – | 99 | 100 | – | 94 | 57 | – | – | –
CC(NC(=O)c1c(I)ccnc1Cl)c1ncc(Br)cc1Br (stereo not drawn) [Compound 30] | 0 | – | 100 | 100 | – | 93 | 44 | – | – | –
CC(NC(=O)c1c(I)ccnc1F)c1ncc(Br)cc1Br (stereo not drawn) [Compound 31] | 0 | – | 100 | 100 | – | 100 | 79 | – | – | –
Cc1cc(Cl)c(C(=O)NC(C)c2ncc(Br)cc2Br)c(Cl)n1 (stereo not drawn) [Compound 32] | 0 | – | 100 | 100 | – | 99 | 82 | – | – | –
CC(NC(=O)c1c(I)ccnc1F)c1ncc(Br)cc1Cl (stereo not drawn) [Compound 33] | 0 | – | 100 | 100 | – | 100 | 100 | – | – | –
CC(NC(=O)c1c(Cl)ccnc1Cl)c1ncc(Cl)cc1Br (stereo not drawn) [Compound 34] | 0 | – | 100 | 100 | – | 100 | 99 | – | – | –
O=C(NCc1ncc(I)cc1Br)c1c(Cl)ccnc1Cl [Compound 35] | 0 | – | – | – | – | – | 96 | 100# % | 99* % | 50* %
CC(NC(=O)c1c(Cl)ccnc1Cl)c1ncc(I)cc1Br (stereo not drawn) [Compound 36] | 0 | – | – | – | – | – | 92 | 100# % | 100* % | 92* %
CC(NC(=O)c1c(Br)ccnc1F)c1ncc(Br)cc1Cl (stereo not drawn) [Compound 37] | 0 | – | 100 | 100 | – | 100 | 100 | – | – | –
CC(NC(=O)c1c(Br)ccnc1F)c1ncc(Cl)cc1Cl (stereo not drawn) [Compound 38] | 0 | – | 100 | 100 | – | 100 | 100 | – | – | –
CC(NC(=O)c1c(Br)ccnc1F)c1ncc(Br)cc1Br (stereo not drawn) [Compound 39] | 0 | – | 100 | 100 | – | 100 | 100 | – | – | –
Cc1cc(Cl)c(C(=O)NCc2ncc(Cl)cc2Br)c(Cl)n1 [Compound 40] | 0 | – | 100 | 100 | – | 99 | 95 | – | – | –
Cc1cc(Cl)c(C(=O)NC(C)c2ncc(Cl)cc2Br)c(Cl)n1 (stereo not drawn) [Compound 41] | 0 | – | 100 | 100 | – | 100 | 97 | – | – | –
Cc1cc(Cl)c(C(=O)NCc2ncc(I)cc2Br)c(Cl)n1 [Compound 42] | 0 | – | 100 | 100 | – | 100 | 93 | – | – | –
Cc1cc(Cl)c(C(=O)NC(C)c2ncc(I)cc2Br)c(Cl)n1 (stereo not drawn) [Compound 43] | 0 | – | 100 | 100 | – | 100 | 90 | – | – | –
